Source: US10265692B2, “Ex vivo methods for predicting and confirming in vivo metabolism of pharmaceutically active compounds” (Empiriko Corporation, priority 2013, dated 2019)

Key:
[1] = Furosemide oxidation by conventional method with octabromo tetrakis(2,6-dichlorophenyl)porphyrin Fe(III)Cl and hydrogen peroxide, with or without imidazole co-catalyst, metabolites by LC/MS-ESI; assay type: in vitro ADME; conditions: DMSO, H2O2, 24 hours; for furosemide metabolites produced, No Co-Catalyst: control without imidazole; for furosemide metabolites produced, Imidazole Co-Catalyst: with imidazole co-catalyst
Procedure: Furosemide API (12.5 mg, 0.0378 mmol) in DMSO (0.1 M) was added to octabromo tetrakis(2,6-dichlorophenyl)porphyrin Fe(III)Cl (0.6 mg, 0.000378 mmol), followed by imidazole (0.13 mg, 0.00189 mmol). Over a 1 hour period, 50% w/w hydrogen peroxide (6.44 uL, […]) was added dropwise. An additional amount of hydrogen peroxide was added after 2 hours. The reaction was monitored by LC and stopped after 24 hours.
A control reaction was run under the exact parameters as stated above, without the addition of imidazole as a co-catalyst.
Samples analyzed according to parameters in Example 1.

[2] = Ex vivo prediction of drug-to-drug interaction: microwave oxidation of drug mixtures with Octabromo tetrakis(2,6-dichlorophenyl)porphyrin Fe(III)Cl and sodium hypochlorite, metabolites by LC/MS; conditions: saxagliptin reacted in mixture with Metformin, porphyrin Fe(III)Cl catalyst, NaOCl
Procedure: Metformin and Saxagliptin Mixture Microwave Protocol: Metformin Hydrochloride (8.19 mg, 0.06341 mmol) in 1:0.25 mL acetonitrile:water was reacted with potassium carbonate (10.96 mg, 0.07926) and stirred at 40° C. for 30 minutes in a microwave tube. Saxagliptin API (20.0 mg, 0.06341 mmol) extracted using 40 mL 1:1 methanol:ethanol, filtered and concentrated in vacuo. The resulting solid taken up in 2:0.25 mL acetonitrile:water and transferred to microwave tube. Octabromo tetrakis(2,6-dichlorophenyl)porphyrin Fe(III)Cl (10.21 mg, 0.006341 mmol) then added, followed by sodium hypochlorite (156.6 uL, 0.3171 mmol). Reaction run in the microwave at 80° C. for 30 minutes (CC-03-149A).

furosemide metabolites produced, No Co-Catalyst [1]	furosemide metabolites produced, Imidazole Co-Catalyst [1]	Presence of Saxagliptin metabolites [2]	Compound
Present	Present	–	NS(=O)(=O)c1cc2c(cc1Cl)N1CC(=O)C=CC1OC2=O (stereo not shown) [FUR1]
Present	Present	–	NS(=O)(=O)c1cc(C(=O)[O-])c(-[n+]2cccc(O)c2)cc1Cl [FUR2]
Present	Present	–	Nc1cc(Cl)c(S(N)(=O)=O)cc1C(=O)O [FUR3]
–	Present	–	NS(=O)(=O)c1cc2c(cc1Cl)[N+]1(O)CC(=O)C(O)C(=O)C1OC2=O (stereo not shown) [FUR4]
–	Present	–	NS(=O)(=O)c1cc2c(cc1Cl)[N+]1([O-])CC(=O)C=CC1OC2=O (stereo not shown) [FUR5]
–	Present	–	NS(=O)(=O)c1cc(C(=O)O)c(NCC(=O)CCC(=O)O)cc1Cl [FUR6]
–	–	Not Detected	N#C[C@@H]1C[C@@H]2C[C@@H]2N1C(=O)C(N)C12CC3CC(O)(CC(O)(C3)C1)C2 (stereo partly shown) [Hydroxy-Saxagliptin]
